Source: US9284543B2, “Neutral active soluble truncated PH20 polypeptides and uses thereof” (Halozyme, Inc., priority 2008, dated 2016)

Tests used:
[1] = tested on: HZ24-2B2 cells expressing rHuPH20; assay: Treatment of rHuPH20-expressing cells with glycosylation inhibitors; assay type: cell-based, Chinese Hamster; settings: for Effect on PH20 activity (in words): tissue culture media and inside the cell
Protocol: Briefly, 1×10^6 HZ24-2B2 cells expressing rHuPH20 (see Example 14 below) were seeded in 24 mL complete CD-CHO medium in two 125 mL flasks. Tunicamycin (dissolved in DMSO) or Kifunensine (freshly dissolved in water) was added to a final concentration of 5 μg/mL (containing 12 μL DMSO). As a control, one flask was seeded with 1×10^6 HZ24-2B2 cells expressing rHuPH20 and 12 μL DMSO was added as a vehicle control. Following addition of either tunicamycin or kifunensine, the cells were incubated for 4-6 hours at 37° C. with 5% CO2. Following expression, a 2 mL culture was removed and centrifuged for 5 minutes at 500 g. The supernatant was stored at 4° C. and the cell pellets were stored at −20° C. The remaining 22 mL cultures were centrifuged for 5 minutes at 500 g. The supernatant was stored at 4° C. The cells were resuspended in 22 mL complete CD-CHO medium in the original two 125 mL flasks. Tunicamycin or Kifunensine was added to the culture at a final concentration of 5 μg/mL and the cells were incubated at 37° C. with 5% CO2. Two mL (2 mL) cultures were removed from each flask at approximately every 24 hours post changing medium. For each time point, the supernatant was stored at 4° C. and the cell pellets were stored at −20° C. The expression of rHuPH20 was analyzed by Western blot analysis and the hyaluronidase activity was measured using the biotinylated HA enzymatic assay (as described in Examples 3 and 5 above).

[2] = Microtiter hyaluronidase activity assay with biotinylated-hyaluronic acid; assay type: biochemical; settings: Table 6, 72 hour post transfection supernatant
Protocol: In Example 4, the hyaluronidase activity of truncated human PH20 hyaluronidase is determined using biotinylated hyaluronic acid. The free carboxyl groups on the glucuronic acid residues of hyaluronic acid are biotinylated, and the biotinylated hyaluronic acid substrate is covalently coupled to a microtiter plate. Following incubation with hyaluronidase, the residual biotinylated hyaluronic acid substrate is detected using an avidin-peroxidase reaction, and compared to that obtained following reaction with hyaluronidase standards of known activity. […] The sensitivity permits rapid measurement of hyaluronidase activity from cultured cells and biological samples with an inter-assay variation of less than 10%.
In this example, the human PH20 hyaluronidase carboxy-terminus deletion mutants were tested for their PH20 hyaluronidase activity using a microtiter assay with biotinylated-hyaluronic acid (biotinylated-HA or bHA). The human PH20 hyaluronidase carboxy-terminus deletion mutants were tested for hyaluronidase activity at both pH 7.4 and pH 5.5.
In short, a 4×BH 96-well plate was coated with biotinylated-HA (1.1 MDa). The 72 hour post transfection supernatant from cells transfected with human PH20 hyaluronidase carboxy-terminus deletion mutants was diluted in buffer at either pH 7.4 or pH 5.5 and added to individual wells of the plate and allowed to incubate at 37° C. for 90 minutes. The reaction was terminated by addition of 4M guanidine HCl. The wells were washed 4× with Phosphate Buffered Saline with Tween20 (PBST) to remove any digested biotinylated-HA followed by addition of streptavidin-HRP for 1 hour at room temperature. The wells were washed 4× with PBST and the plate was developed with TMB. The plate was read at 450 nm using an ELISA plate reader. Hyaluronidase activity (in Units/mL) was determined by interpolating the measured absorbance at 450 nm with a hyaluronidase reference standard curve. Full length mature human PH20 hyaluronidase and untransfected CHO cells were used as positive and negative controls.

O=C1N[C@@H]2[C@@H](O)[C@@H](O)[C@H](O)[C@@H](CO)N2C1=O [Kifunensine]
PH20 activity ([1]; Cell Pellets, With Kifunensine, 0 hours): 22.25 U/mL | PH20 activity ([1]; Cell Pellets, With Kifunensine, 6 hours): 21.25 U/mL | PH20 activity ([1]; Cell Pellets, With Kifunensine, 24 hours): 27.75 U/mL | PH20 activity ([1]; Cell Pellets, With Kifunensine, 50 hours): 43 U/mL | PH20 activity ([1]; Cell Pellets, With Kifunensine, 72 hours): 98.75 U/mL | PH20 activity ([1]; Cell Pellets, With Kifunensine, 96 hours): 208.75 U/mL | PH20 activity ([1]; Cell Pellets, With Kifunensine, […]): 497.25 U/mL | PH20 activity ([1]; Tissue Culture Media, With Kifunensine, 0 hours): 0.4 U/mL | PH20 activity ([1]; Tissue Culture Media, With Kifunensine, 6 hours): 23.85 U/mL | PH20 activity ([1]; Tissue Culture Media, With Kifunensine, 24 hours): 129.6 U/mL | PH20 activity ([1]; Tissue Culture Media, With Kifunensine, 50 hours): 299.7 U/mL | PH20 activity ([1]; Tissue Culture Media, With Kifunensine, 72 hours): 535.95 U/mL | PH20 activity ([1]; Tissue Culture Media, With Kifunensine, 96 hours): 945 U/mL | PH20 activity ([1]; Tissue Culture Media, With Kifunensine, […]): 2968.65 U/mL | Viable Cells ([1]; With Kifunensine 5 μg/mL, 0 hours): 1 ×10^6 | Viable Cells ([1]; With Kifunensine 5 μg/mL, 6 hours): 1 ×10^6 | Viable Cells ([1]; With Kifunensine 5 μg/mL, 24 hours): 1.2 ×10^6 | Viable Cells ([1]; With Kifunensine 5 μg/mL, 50 hours): 2.1 ×10^6 | Viable Cells ([1]; With Kifunensine 5 μg/mL, 72 hours): 3 ×10^6 | Viable Cells ([1]; With Kifunensine 5 μg/mL, 96 hours): 3.7 ×10^6 | Viable Cells ([1]; With Kifunensine 5 μg/mL, […]): 5.8 ×10^6 | Effect on PH20 activity (in words) ([1]; 5 μg/mL): did not affect the activity of PH20 | Effect on expression and secretion of rHuPH20 ([1]; western blot analysis, 5 μg/mL): inhibited the expression and secretion of rHuPH20

Tunicamycin
Effect on cell viability (in words) ([1]; 5 μg/mL): complete loss of cell viability | PH20 activity ([1]; Cell Pellets, With Tunicamycin, 0 hours): 34.50 U/mL | PH20 activity ([1]; Cell Pellets, With Tunicamycin, 1 hours): 38.00 U/mL | PH20 activity ([1]; Cell Pellets, With Tunicamycin, 2 hours): 34.00 U/mL | PH20 activity ([1]; Cell Pellets, With Tunicamycin, 4 hours): 18.00 U/mL | PH20 activity ([1]; Cell Pellets, With Tunicamycin, 25 hours): 1.00 U/mL | PH20 activity ([1]; Cell Pellets, With Tunicamycin, 49 hours): 0.80 U/mL | PH20 activity ([1]; Cell Pellets, With Tunicamycin, 73 hours): 0.30 U/mL | PH20 activity ([1]; Cell Pellets, With Tunicamycin, 91 hours): 0.30 U/mL | PH20 activity ([1]; Tissue Culture Media, With Tunicamycin, 0 hours): 0.50 U/mL | PH20 activity ([1]; Tissue Culture Media, With Tunicamycin, 1 hours): 2.80 U/mL | PH20 activity ([1]; Tissue Culture Media, With Tunicamycin, 2 hours): 5.00 U/mL | PH20 activity ([1]; Tissue Culture Media, With Tunicamycin, 4 hours): 8.80 U/mL | PH20 activity ([1]; Tissue Culture Media, With Tunicamycin, 25 hours): 5.80 U/mL | PH20 activity ([1]; Tissue Culture Media, With Tunicamycin, 49 hours): 6.80 U/mL | PH20 activity ([1]; Tissue Culture Media, With Tunicamycin, 73 hours): 7.80 U/mL | PH20 activity ([1]; Tissue Culture Media, With Tunicamycin, 91 hours): 7.50 U/mL | Viable Cells ([1]; With Tunicamycin 5 μg/mL, 0 hours): 1.04 ×10^6 | Viable Cells ([1]; With Tunicamycin 5 μg/mL, 1 hours): 1.04 ×10^6 | Viable Cells ([1]; With Tunicamycin 5 μg/mL, 2 hours): 1.04 ×10^6 | Viable Cells ([1]; With Tunicamycin 5 μg/mL, 4 hours): 0.910 ×10^6 | Viable Cells ([1]; With Tunicamycin 5 μg/mL, 25 hours): 1.08 ×10^6 | Viable Cells ([1]; With Tunicamycin 5 μg/mL, 49 hours): 0.200 ×10^6 | Viable Cells ([1]; With Tunicamycin 5 μg/mL, 73 hours): 0.080 ×10^6 | Viable Cells ([1]; With Tunicamycin 5 μg/mL, 91 hours): 0 ×10^6 | Accumulation of deglycosylated human PH20 inside the cell ([1]; one hour of treatment, SDS-PAGE mobility shift to approximately 56 kDa in cell pellet fractions): accumulation of deglycosylated human PH20 hyaluronidase inside the cell | Effect on PH20 activity (in words) ([1]; 5 μg/mL): inhibits PH20 activity

B1: VASL + PLC: full length human PH20 (SEQ ID NO: 108) with PLC treatment (protein, listed as Homo sapiens)
chain: LNFRAPPVIPNVPFLWAWNAPSEFCLGKFDEPLDMSLFSFIGSPRINATGQGVTIFYVDRLGYYPYIDSITGVTVNGGIPQKISLQDHLDKAKKDITFYMPVDNLGMAVIDWEEWRPTWARNWKPKDVYKNRSIELVQQQNVQLSLTEATEKAKQEFEKAGKDFLVETIKLGKLLRPNHLWGYYLFPDCYNHHYKKPGYNGSCFNVEIKRNDDLSWLWNESTALYPSIYLNTQQSPVAATLYVRNRVREAIRVSKIPDAKSPLPVFAYTRIVFTDQVLKFLSQDELVYTFGETVALGASGIVIWGTLSIMRSMKSCLLLDNYMETILNPYIINVTLAAKMCSQVLCQEQGVCIRKNWNSSDYLHLNPDNFAIQLEKGGKFTVRGKPTLEDLEQFSEKFYCSCYSTLSCKEKADVKDTDAVDVCIADGVCIDAFLKPPMETEEPQIFYNASPSTLSATMFIVSILFLIISSVASL
modifications: PLC treatment; Mature Human PH20 36-509
pH 5.5 Activity ([2]; pH 5.5): 2.313 Units/ml | pH 7.4 Activity ([2]; pH 7.4): 3.96 Units/ml
